The conditions of series [1]: primary irritation index; cited from earlier work.
A short description of series [2]: Viscosity of monomers at 25° C. Type of series: physicochemical. As to conditions: measured value at 25° C. As for the experimental part: The viscosities in the foregoing table are a measured value at 25° C.

Our source for the P.I.I. and Viscosity values is patent US20080200635A1, “POLYSILANE COMPOUND AND SYNTHESIS METHOD, ULTRAVIOLET-RAY CURABLE INK COMPOSITION, INKJET RECORDING METHOD AND APPARATUS, AND INK CONTAINER” (SEIKO EPSON CORPORATION, priority 2007, published 2008).

As to `C=C(C)C(=O)OCCCCOC(=O)C(=C)C` [1,4-Butanediol dimethacrylate], the P.I.I. in series [1] is reported as 2.0. In addition, the Viscosity in series [2] is recorded as 7 mPa · s.
For the compound `C=C(C)C(=O)OCCCCCCOC(=O)C(=C)C` [1,6-Hexanediol dimethacrylate], the P.I.I. in series [1] is reported as 0.5. Moreover, the Viscosity in series [2] turned out to be 6 mPa · s.
In the case of `C=CC(=O)OCCCCCCCCCOC(=O)C=C` [1,9-Nonanediol diacrylate], in series [1], the P.I.I. is 2.0. Moreover, the Viscosity in series [2] came to 21 mPa · s.
Turning to `C=C(C)C(=O)OCC(O)COC(=O)C(=C)C` [2-Hydroxy-1,3-dimethacryloxypropane], the P.I.I. in series [1] was 0.6. This compound had a Viscosity in series [2] of 37 mPa · s.
Regarding `C=C(C)C(=O)OCC1COC(C)(CC)O1` (centres unmarked) [(2-Methyl-2-ethyl-1,3-dioxolan-4-yl)methyl methacrylate], the P.I.I. in series [1] is recorded as 1.3. Besides, the Viscosity in series [2] is reported as 5.1 mPa · s.
With `C=CC(=O)OCC1COC(C)(CC(C)C)O1` (centres unmarked) [(2-Methyl-2-isobutyl-1,3-dioxolan-4-yl)methyl acrylate], the P.I.I. in series [1] is 1.0. This compound returned a Viscosity in series [2] of 5.3 mPa · s.
With `C=CC(=O)N1CCOCC1` [Acryloyl morpholine], the Viscosity in series [2] is given as 12 mPa · s.
As to `C=C(C)C(=O)OCCOCCOC(=O)C(=C)C` [Diethylene glycol dimethacrylate], the P.I.I. in series [1] is on record as 0.5. The Viscosity in series [2] was found to be 5 mPa · s.
In the case of `C=C(C)C(=O)OCCOC(=O)C(=C)C` [Ethylene glycol dimethacrylate], the P.I.I. in series [1] is on record as 0.6. For the same compound, in series [2], the Viscosity turned out to be 3 mPa · s.
`C=CC(=O)O[C@@H]1C[C@H]2CC[C@]1(C)C2(C)C` [Isobonyl acrylate]: the P.I.I. in series [1] is 0.6. In addition, the Viscosity in series [2] came out at 2.6 mPa · s.
With `C=CC(=O)OCCOCCOC` [Methoxy diethylene glycol monoacrylate], the P.I.I. in series [1] is 0.7. The compound also registered a Viscosity in series [2] of 2 mPa · s.
With `C=C(C)C(=O)OCC(C)(C)COC(=O)C(=C)C` [Neopentyl glycol dimethacrylate], the P.I.I. in series [1] is recorded as 0.0. This compound returned a Viscosity in series [2] of 7 mPa · s.
As for `C=CC(=O)OCCOc1ccccc1` [Phenoxyethyl acrylate], the P.I.I. in series [1] was 1.7. In addition, in series [2], the Viscosity was determined as 3.3 mPa · s.
In the case of `C=C(C)C(=O)OCCOCCOCCOCCOC(=O)C(=C)C` [Tetraethylene glycol dimethacrylate], the P.I.I. in series [1] was 0.5. The compound also had a Viscosity in series [2] of 14 mPa · s.
For the compound `C=C(C)C(=O)OCC(CC)(COC(=O)C(=C)C)COC(=O)C(=C)C` [Trimethylolpropane trimethacrylate], the P.I.I. in series [1] is listed as 0.8. Also, the Viscosity in series [2] was 42 mPa · s.
In the case of `C=CC(=O)OCC(C)OCC(C)OCC(C)OC(=O)C=C` (centres unmarked) [Tripropylene glycol diacrylate], the P.I.I. in series [1] is on record as 1.6. The same compound had a Viscosity in series [2] of 12 mPa · s.
As to Glycerin PO-modified triacrylate, the Viscosity in series [2] is 75 mPa · s.
As to Polyethylene glycol #400 diacrylate, the P.I.I. in series [1] is on record as 0.4. The same compound showed a Viscosity in series [2] of 58 mPa · s.
As for “Trimethylolpropane PO-modified triacrylate”, in series [1], the P.I.I. was 0.1. Moreover, in series [2], the Viscosity worked out at 60 mPa · s.
As to Trimethylolpropane modified triacrylate, the P.I.I. in series [1] was 1.5. Also, the Viscosity in series [2] is given as 55 mPa · s.
